Laboratory results as given in patent US20260027103A1, “PHARMACEUTICAL COMPOSITIONS COMPRISING A QUINOLONE COMPOUND FOR IRRITABLE BOWEL SYNDROME” (OTSUKA PHARMACEUTICAL CO., LTD., priority 2022, published 2026).

Columns and labels:
[1] = tested on: restraint stress (RS) rat model; test: Restraint stress (RS) rat model: body weight, food intake, fecal pellet output; assay type: in vivo, Sprague-Dawley (SD) rats
Text: Male Sprague-Dawley (SD) rats, weighting 200-250 g were purchased from Charles River Laboratories Beijing and housed in an SPF grade animal facility of OSRI in individual ventilated cages (IVC), with 3 rats per cage. All animals were maintained with a 12-hour light/dark cycle and had free access to rodent chow and water. All animal study procedures were in accordance with Animal Welfare Regulations and approved by the Institutional Animal Care and Use Committee (IACUC) of OSRI.
Rats (from group #2 and group #3) were submitted to a 2-hour restraint in a plastic cylinder daily in the PM for 10 consecutive days (D1 to D10). Rats from the control group (group #1) remained in their individual cages, undisturbed throughout the entire experiment. After 3 days of repeated RS modeling, from D4 to D10, the rats from group #2 and group #3 were treated in the morning (4h ahead of PM restraint) with vehicle (5% AG) and the test substance (2.5 mg/kg) respectively for 7 consecutive days. Fecal pellet output was used to estimate distal colonic motility as a validated index (Hong S et al., Gut 2009, 58:202-210). During the 2-hour restraint period, the rat's fecal pellet output was collected and counted, same for the rats in control group during the same 2-hour mock observation period.

[2] = tested on: restraint stress (RS) rat model; test: Visceromotor response to colorectal distention in RS model; assay type: in vivo, Sprague Dawley Rats; settings: 2.5 mg/kg PO, day 7 (4 days post dose), p<0.05 vs RS group, FIG. 5
Experimental: (§1) Sprague Dawley Rats were submitted to a 2h restraint in a plastic cylinder daily for 7 consecutive days as described above. In control group, the rats were remained in an individual cage, undisturbed, throughout the experiment.
Colonic distension—A polyethylene balloon (3 cm long, 1.5 cm max. diameter) was secured to tubing attached to a blood pressure meter to be used to perform colonic distension. The balloon was lubricated and placed into the rat's distal colon so that the tip of the balloon was 2 cm proximal to the anus. Using the blood pressure meter distension device, rats were restrained in a plastic containment device and allowed to acclimate for 10 min before testing. The rats received phasic distension (0-100 mmHg in 5-mmHg ascending increments) of the colon until the first contraction of the testicles, tail or abdominal musculature occurred. This visualization was performed by three independent observers. […] Compliance of the colon was not measured given the rapid distension protocol used in this study. The colonic distensions were repeated three times with 5-min interstimulus intervals and the mean pressures at the nociceptive threshold were recorded for each rat.
Statistical significance was either calculated by two-tailed T-test (visceral sensitivity on day 3) or one-way ANOVA using Dunnett's multiple comparison. P<0.05 was considered statistically significant.

histamine = test: Urine histamine level by ELISA in RS model; assay type: in vivo, Sprague Dawley Rats; settings: rat, 2.5 mg/kg PO, day 7 (4 days post treatment), p<0.01 vs RS group, FIG. 6
Experimental: as §1
Urine samples were collected every day after the restraint. A plastic dish was placed underneath restraint tube and the urine sample was collected. It is immediately transferred into a tube and stored at-800C until further analysis. Histamine was measured with the Histamine ELISA Kit ((CAT #: D751012, BBI) according to the manufacturer's instructions as follows.
Calculate the required number of slats in advance, and take out the kit 30 minutes before the test and restore it to room temperature. • 2. Add 50 μL of standard working liquid and test sample to each reaction hole. The standard needs to be re-drilled. 50 μL of biotin-labeled histamine antibody working solution was added to each reaction well immediately, and the plate was sealed and incubated at 37° C. for 45 min. • 3. […] OD value was measured with 450 nm wavelength of enzyme label instrument. • 9. Draw a standard curve with the concentration of standard substance as the horizontal coordinate and absorbance as the vertical coordinate. • 10. Statistical significance was either calculated by two-tailed T-test (visceral sensitivity on day 3) or one-way ANOVA using Dunnett's multiple comparison. […]

SMILES: Cc1c(-c2cnc(N)c(C#N)c2)c(F)cc2c(=O)c(C(=O)O)cn(C3CC3)c12 [OPS-2071, 1-cyclopropyl-6-fluoro-1,4-dihydro-8-methyl-7-(2-amino-3-cyano-5-pyridyl)-4-oxo-3-quinoline-carboxylic acid]
- body weight / body weight change (BWC) % in RS-IBS model ([1]; 2.5 mg/kg PO QD for 7 days from D4, group #3 vs. RS vehicle group #2, FIGS. 1 and 2): body weight drop caused by restraint stress is improved
- fecal pellet output during 2-hour restraint ([1]; 2.5 mg/kg PO from day 4, group #3 vs. group #2, FIG. 3): a decrease of the fecal pellet output was observed
- food intake (appetite) in RS model ([1]; 2.5 mg/kg PO, monitored from 3 days post treatment initiation, group #3 vs. group #2): protective effect on decreased appetite
- visceral sensitivity (visceromotor response to colorectal distention, mmHg) [2]: a decrease in visceral sensitivity
- urine histamine level (histamine): decreased
